What all share (type): cell-based
Experiment [1] deals with MIN6 cells (pancreatic β cell line). Kind of experiment: EdU cell proliferation assay, growth promotion of pancreatic β cells (3), versus Peptides A, B, C. The settings on record: betagenin 1 nM compared with Peptides A, C at 3 nM or 5 nM, FIG. 5. Here is the method:
MIN6 cells provided by Dr. Miyazaki at Osaka University were used as a pancreatic β cell line. MIN6 cells were maintained in a DMEM culture medium with added 15% (v/v) of FBS.
A DMSO solution was prepared so that the concentration of chemically synthesized betagenin was 97% of purity, as a pancreatic hormone-producing cell growth-promoting agent.
Further, for comparison, Peptides A, B, C consisting of the amino acid sequences set forth in SEQ ID Nos: 4 to 6, respectively, were prepared by chemical synthesis.
First, MIN6 cells were plated on a collagen-coated 8-well slide chamber (BD Falcon, Product Number 354630) at a cell density of 1×10^4 cells/well for confirming the growth promotion of pancreas β cells. After 24 hours, the culture medium was replaced with a DMEM culture medium with added 0.5% (v/v) of FBS, and then serum starvation was performed for 72 hours. Note that the culture medium was replaced with a fresh culture medium 48 hours after the start of serum starvation. […]
The incorporated EdU was visualized as red fluorescence using Alexa Flour™ 594, and observed with a fluorescence microscope (Carl Zeiss). […] Note that a red fluorescence part representing a region where EdU was taken up will be confirmed as a dark black part due to the operations of black and white processing and black and white inversion.

Experiment [2] deals with human iPS cells (200-9 cells, TIG3/KOSM cells, 253G1 cells). Kind of experiment: Differentiation induction of human iPS cells into pancreatic hormone-producing cells (1), immunostaining. The settings on record: 3 nM betagenin in step (D2), vs DMSO control, FIG. 3. The text has this: (§1) As human iPS cells, used were 253G1 cells purchased from the cell bank at RIKEN, TIG3/KOSM cells provided by Dr. Mitani at Saitama Medical University, 200-9 cells, a clone in which a reporter gene is introduced into TIG3/KOSM cells. TIG3/KOSM cells were established at The National Institute of Advanced Industrial Science and Technology by introducing 4 factors (the OCT gene, the KLF gene, the SOX gene, the MYC gene) into TIG-3 cells using Sendai virus (Nishimura, K. et al., J. Biol. Chem., 286, pp. 4760-4771 (2011)).
These cells were cultured/maintained in an ES cell culture medium (DMEM/ham F12, 20% KSR, nonessential amino acid, 2 mM L-glutamine, 0.1 mM 2-mercaptoethanol, 5.2 mM NaOH) with added 4 ng/mL FGF-2 (Global Stem) and penicillin/streptomycin (Nacalai Tesque, Inc.) along with SNL76/7 cells (DS Pharma Biomedical) treated with mitomycin-C. CTK (0.25% trypsin, 1 mg/mL collagenase IV, 20% KSR, 1 mM CaCl2 in PBS) was used for cell detachment, and diluted at a ratio of 1:3 to 1:4 to perform passage culture.
Cells were detached with trypsin-EDTA 3 days before the start of differentiation induction, and plated at a cell density of 6.3×10^4 cells/cm2, and cultured for 1 day in an ES cell culture medium with added 10 μM Y-27632 (Wako), 4 ng/mL FGF-2 and penicillin/streptomycin along with STO cells treated with mitomycin-C. Subsequently, they were further cultured for 2 days in an ES cell culture medium with added 4 ng/mL FGF-2 and penicillin/streptomycin.
On the first day of the start of differentiation induction, the culture medium was replaced with a RPMI1640 culture medium (Nacalai Tesque, Inc.) with added 2% (v/v) FBS, 100 ng/mL activin A (SBI) and 3 μM CHIR99021 (Axon Medchem), and cultured for 1 day (Step (A2)).
Subsequently, the culture medium was replaced with a RPMI1640 culture medium with added 2% (v/v) FBS and 100 ng/mL activin A, and cultured for 2 days (Step (B2)). […]
Then, the proportion (%) of C-peptide positive cells or insulin positive cells was determined using an image analyzer CellInsight (Thermo Fisher Scientific).

Experiment [3] deals with human iPS cells (253G1 cells). Kind of experiment: Differentiation induction of human iPS cells into pancreatic hormone-producing cells (1), quantitative RT-PCR. To be noted: 3 nM betagenin in step (D2), 11 days, vs DMSO control, Day 10 cells taken as 1, FIG. 2.
Text: as §1
These cells were cultured/maintained in an ES cell culture medium (DMEM/ham F12, 20% KSR, nonessential amino acid, 2 mM L-glutamine, 0.1 mM 2-mercaptoethanol, 5.2 mM NaOH) with added 4 ng/mL FGF-2 (Global Stem) and penicillin/streptomycin (Nacalai Tesque, Inc.) along with SNL76/7 cells (DS Pharma Biomedical) treated with mitomycin-C. […]
The gene expression of insulin was confirmed by quantitative RT-PCR for the cells (n=2 for each of the betagenin addition group and the control group) obtained from 253G1 cells via the above steps (A2) to (D2). Specifically, total RNA was first extracted from the cells using a SV Total RNA Isolation System (Promega), and reverse transcription reactions were performed with BioScript™ transcriptase (Bioline), and then quantitative PCR analysis was performed using SYBR™ Green PCR Master Mix (Applied Biosystems). […]

Consider “betagenin: chemically synthesized peptide of SEQ ID NO: 1, fragment of human TM4SF20 from Position 170 to Position 229 (WRASSFHFDSEENKHRLIHFSVFLGLLLVGILEVLFGLSQIVIGFLGCLCGVSKRRSQIV; Peptide Sequence betagenin; listed as Homo sapiens)”, for which the “EdU uptake in fluorescence microscope images (dark black parts)” value in experiment [1] was “significantly darker black parts”. For the same substance, the “proportion of C-peptide positive cells or insulin positive cells” value in experiment [2] (200-9 cells), in experiment [2] (253G1 cells) and in experiment [2] (TIG3/KOSM cells) was “increased” each time. In addition, the “amount of insulin expression (relative)” value in experiment [3] is recorded as “increased”.

For the origin of these results see patent publication US9856304B2, “Peptide and application thereof” (Saitama Medical University, priority 2013, dated 2018).
